Measured values taken from patent US5677459A, “Methods for the preparation of modulators of acetylcholine receptors” (Sibia Neurosciences, Inc., priority 1995, dated 1997).
Structures can show the parent of a compound that is named as a salt. Where two headings read alike, the source gives them in different places.

Columns and labels:
[1] = target: T1, nicotinic acetylcholine receptor (Rattus norvegicus, UniProt P09483+P12390); assay: ^3 H-Nicotine binding/displacement, rat cerebral membranes
T1 construct: the brains removed and the cerebral cortex dissected on ice; from tissue; host or cells: cerebral cortex synaptic membranes of male Sprague-Dawley rats
Experimental: ^3 H-Nicotine binding to rat cerebral membranes was performed according to modifications of the method of Flyn and Mash (J. Neurochem. 47:1948 (1986)). ^3 H-Nicotine (80 ci/mmol; New England Nuclear Corporation, Boston, Mass.) was used as the ligand for nicotinic acetylcholine receptor binding assays. All other reagents were purchased from the Sigma Chemical Co. (St. Louis, Mo.).
Male Sprague-Dawley rats (250-400 gm) were sacrificed by decapitation, the brains removed and the cerebral cortex dissected on ice. Synaptic membranes were prepared by homogenizing the cortical tissue in 20 volumes of ice-cold modified Tris buffer (50 mM Tris pH 7.4, 120 mM NaCl, 5 mM KCl, 2 mM EDTA, 1 mM PMSF) with a polytron (20 sec at setting 5-6) followed by centrifugation (15 min at 5,000×g) at 4° C. The resultant pellet was rehomogenized and centrifuged twice. The final pellet was resuspended in ice-cold assay buffer (50 mM Tris pH 7.4, 120 mM NaCl, 5 mM KCl, 2 mM CaCl2, 1 mM MgCl2) at a concentration of membrane equivalent to 1 gm wet weight cortex per 10 ml buffer. After protein determination the final membrane preparation was diluted with buffer to 3 mg protein/mi. This membrane preparation was used in either the fresh state or frozen (-70° C.) then thawed.
The binding assay is performed manually using 96-well plates, or using a Biomek automated work station (Beckman Instrument Co.). ^3 H-Nicotine was diluted in assay buffer to give a final concentration of 1.9 nM. The Biomek automated work station was programmed to automatically transfer 750 μl of assay buffer with ^3 H-nicotine, 230 μl of membrane preparation and 20 μl of solution containing the compound of interest in assay buffer, DMSO, ethanol:DMSO (1:1) or appropriate vehicle to the 96-well plate. Atropine was added to the incubation buffer at a final concentration of 3 μM to block binding to muscarinic acetylcholine receptor sites. The plates were maintained on ice for 60 min and the tissue-bound radioactivity was separated from the free by rapid filtration in a Brandel Harvester onto GF/C filters presoaked in 0.5% polyethyleneimine for at least 2 hr. The filters were washed with 4×2 ml of ice-cold assay buffer and filters were transferred to vials to which 4 ml of scintillation cocktail was added. The radioactivity was measured in a LS-6500 Beckman Liquid Scintillation Counter in an autodpm mode. Data were analyzed bylog-logit transformation or non-linear regression analysis (e.g., employing GraphPad Prism, available from GraphPad Software, San Diego, Calif.) to give IC50 values. Non-specific binding was defined by 10 μM cytisine.

[2] = target: muscarinic acetylcholine receptors; assay: ^3 H-QNB (quinuclidinyl benzilate) binding/displacement, rat cerebral membranes
[3] = tested on: ^3 H-Dopamine release, rat striatal slices; assay: Ligand-stimulated ^3 H-dopamine release from rat striatal slices; type: cell-based; conditions: for Emax at 300 µM: Rattus norvegicus, read-out: % of Nicotine Response, ^3 H-Dopamine, Striatum
Experimental: (§1) Measurement of ^3 H-dopamine release from rat striatal slices was performed according to the method of Sacaan et al. (J. Neurochem. 59:245 (1992)). Male Sprague-Dawley rats (250-300 g) were decapitated and the striata or olfactory tubercles dissected quickly on a cold glass surface. The tissue was chopped to a thickness of 300 μm with a McIlwain tissue chopper. After chopping again at right angles the tissue was dispersed and incubated for 10 min. at 37° C. in oxygenated Kreb's buffer. ^3 H-Dopamine (40 Ci/mmol, NEN- Dupont, Boston, Mass.) was added (50 nM) and the tissue was incubated for 30 min. in Kreb's buffer containing 10 μM pargyline and 0.5 mM ascorbic acid. Aliquots of the minced tissue were then transferred to chambers of a Brandel Superfusion system in which the tissue was supported on Whatman GF/B filter discs. The tissue was then superfused with buffer at a constant flow rate of 0.3 ml/min by means of a Brandel peristaltic pump. The perfusate was collected in plastic scintillation vials in 3-min fractions, and the radioactivity was estimated by scintillation spectrophotometry. The superfusate for the first 120 min was discarded. After two baseline fractions had been collected, the superfusion buffer was switched to fresh buffer with or without compound of interest. At the end of the experiment the filter and the tissue were removed, and the radiolabeled neurotransmitter content was estimated after extraction into scintillation fluid. The fractional efflux of radiolabeled neurotransmitter was estimated as the amount of radioactivity in the perfusate fraction relative to the total amount in the tissue.
(§2) Results of studies of the effects of an invention compound (as compared to the effect of nicotine) on the release of neurotransmitters from rat brain slices are presented in Table II. Results presented in Part A of the Table are expressed as the percent fractional release and results presented in Part B of the Table are expressed as a percentage, relative to nicotine response.

rats = assay: Locomotor activity assay; type: in vivo, rat (male Sprague-Dawley); conditions: Rattus norvegicus, sc, 20 mg/kg, s.c.
Experimental: This assay can be used to assess the primary effect of a compound on general motor activity. A decrease in locomotor activity is indicative of a possible sedative effect on the animal, whereas an increase in locomotor activity is indicative of a stimulant effect on the animal.
Locomotor activity of rats (male Sprague-Dawley (Harlan) weighing 200-250 gm) was measured for 2 hrs in photocell cages immediately after administration of the invention compound. Prior to the test day, the animals were placed in the activity cages for 3 hrs to familiarize them with the experimental environment. On the test day, the animals were placed in the photocell cages and then injected with compound 1.5 hrs later.
The photocell cages were standard rodent cages (30 cm×20 cm×40 cm) with four infrared beams crossing the long axis. The animals were under no motivational constraints and were free to move around. Movements from one infrared beam to another (ambulation) were called "crossover"; successive interruptions of the same beam (vertical and other movements such as grooming) were called "general activity."

[4] = tested on: ^3 H-Norepinephrine release, rat hippocampus slices; assay: Ligand-stimulated ^3 H-norepinephrine release from rat hippocampus slices; type: cell-based; conditions: for Emax at 300 µM: Rattus norvegicus, nicotine 300 μM = 100, read-out: % of Nicotine Response, ^3 H-Norepinephrine, Hippocampus; for % of Nicotine Response, ^3 H-Norepinephrine, Hippocampus: nicotine 300 μM = 100
Experimental: as §1
(§3) Following essentially the same procedure as set forth above, the amount of ^3 H-norepinephrine released from rat hippocampus, thalamus and prefrontal cortex slices superfused with buffer containing (or lacking) compounds of interest was also measured.
as §2

[5] = tested on: ^3 H-Norepinephrine release, rat thalamus slices; assay: Ligand-stimulated ^3 H-norepinephrine release from rat thalamus slices; type: cell-based; conditions: in vitro slices, 300 μM
Experimental: as §1, §3, §2

[6] = tested on: ^3 H-Dopamine release, rat olfactory tubercles; assay: Ligand-stimulated ^3 H-dopamine release from rat olfactory tubercles; type: cell-based; conditions: in vitro slices, 300 μM
Experimental: as §1, §2

[7] = ^3 H-nicotine 1.9 nM, rat cerebral membranes, read-out: IC50, Nicotine
[8] = ^3 H-QNB 60 pM, rat cerebral membranes
[9] = compounds at 300 μM, nicotine 10 μM = 100

T1 sequence (P09483 31-630): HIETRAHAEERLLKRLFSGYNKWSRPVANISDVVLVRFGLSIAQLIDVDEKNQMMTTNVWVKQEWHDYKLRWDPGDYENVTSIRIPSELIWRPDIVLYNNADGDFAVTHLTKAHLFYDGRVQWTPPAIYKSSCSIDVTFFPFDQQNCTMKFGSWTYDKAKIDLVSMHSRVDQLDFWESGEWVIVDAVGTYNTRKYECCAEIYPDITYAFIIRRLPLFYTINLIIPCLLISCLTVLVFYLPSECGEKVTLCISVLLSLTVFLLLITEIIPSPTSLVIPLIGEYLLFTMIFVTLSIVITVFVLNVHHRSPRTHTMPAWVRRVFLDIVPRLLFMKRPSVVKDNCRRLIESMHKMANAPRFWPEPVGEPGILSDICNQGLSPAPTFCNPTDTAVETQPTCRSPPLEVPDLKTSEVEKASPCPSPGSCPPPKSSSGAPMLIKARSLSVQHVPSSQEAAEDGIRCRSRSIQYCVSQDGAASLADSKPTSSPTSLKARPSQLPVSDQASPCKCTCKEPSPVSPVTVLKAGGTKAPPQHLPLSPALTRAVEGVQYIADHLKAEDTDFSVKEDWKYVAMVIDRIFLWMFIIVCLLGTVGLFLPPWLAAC
T1 sequence (P12390 25-500): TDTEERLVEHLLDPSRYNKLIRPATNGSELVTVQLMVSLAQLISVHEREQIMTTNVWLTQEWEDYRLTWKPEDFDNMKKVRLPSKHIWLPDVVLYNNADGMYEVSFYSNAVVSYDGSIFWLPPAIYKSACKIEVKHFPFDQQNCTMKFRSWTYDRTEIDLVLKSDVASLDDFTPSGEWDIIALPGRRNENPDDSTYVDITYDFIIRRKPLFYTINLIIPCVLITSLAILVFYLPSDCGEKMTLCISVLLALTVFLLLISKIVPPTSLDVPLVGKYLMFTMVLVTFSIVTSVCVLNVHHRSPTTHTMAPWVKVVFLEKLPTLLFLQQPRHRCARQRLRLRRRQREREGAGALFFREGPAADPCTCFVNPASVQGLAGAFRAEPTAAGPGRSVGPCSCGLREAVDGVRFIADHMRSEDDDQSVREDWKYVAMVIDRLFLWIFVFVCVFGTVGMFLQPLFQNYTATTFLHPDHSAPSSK

Compound | IC50 [1, 7] [µM] | IC50 [2, 8] [µM] | Emax at 300 µM [3, 9] [%] | Emax at 300 µM [4] [%] | other results
CN(C)CC#Cc1cncc(C2CCCN2C)c1 (stereo not shown) [R^5 = 5-(1-dimethylamino-2-propynyl), 5-[3-(1-Dimethylamino-2-propynyl)]-3-(1-methyl-2-pyrrolidinyl)pyridine fumarate] | 0.025 | 100 | 235 |  | 
C#Cc1cncc(C2CCCN2C)c1 (single isomer, unassigned) [5-Ethynyl-3-(1-methyl-2-pyrrolidinyl)pyridine di-p-toluoyl-L-tartrate] |  |  |  |  | IC50 ([1]; IC50, Nicotine): 0.0026 µM; Emax at 300 µM ([3]; compound at 300 μM, Nicotine concentration was 300 μM): 155%
CN1CCCC1c1cncc(C#Cc2ccccc2)c1 (stereo not shown) [R^5 = phenylethynyl, 5-Phenylethynyl-3-(1-methyl-2-pyrrolidinyl)pyridine fumarate] |  |  |  |  | change in vivo at 20 mg/kg (rats; 1 h, 0-60 min, read-out: Ambulation (cross overs), percent of change from control): 7%; change in vivo at 20 mg/kg (rats; 1 h, 0-60 min, read-out: General Activity (beam breaks), percent of change from control): 3%; change in vivo at 20 mg/kg (rats; 2 h, 60-120 min, read-out: Ambulation (cross overs), percent of change from control): -16%; change in vivo at 20 mg/kg (rats; 2 h, 60-120 min, read-out: General Activity (beam breaks), percent of change from control): -11%
Fc1ccc(-c2cncc(C3CCCCN3)c2)cc1 (stereo not shown) [5-(4-Fluorophenyl)-3-(2-piperidinyl)pyridine fumarate] | 0.49 | 24.9 |  |  | 
COCC#Cc1cncc(C2CCCN2C)c1 (stereo not shown) [R^5 = 5-(1-methoxy-2-propynyl), 5-[3-(1-Methoxy-2-propynyl)]-3-(1-methyl-2-pyrrolidinyl)pyridine fumarate] | 0.0026 | > 100 | 61.7 | 7.4 | 
C#Cc1cncc(C2CCCN2C)c1 (single isomer, unassigned) [5-ethynyl-3-(1-methyl-2-pyrrolidinyl)pyridine di-p-toluoyl-D-tartrate] |  |  | 33 |  | IC50 ([1]; IC50, Nicotine): 0.078 µM
C#Cc1cncc(C2CCC(=O)N2C)c1 (stereo not shown) [A = C(O); R^7 = CH3; R^5 = 5-(1-ethynyl), 5-Ethynyl-3-(1-methyl-5-pyrrolidin-2-onyl)pyridine] | > 100 | > 100 |  |  | 
C#Cc1cncc(C2CCCN2C)c1 (single isomer, unassigned) [R^5 = 5-(1-ethynyl) Di-p-toluoyl-L-tartrate] [5-Ethynyl-3-(1-methyl-2-pyrrolidinyl)pyridine di-p-toluoyl-L-tartrate] |  |  |  |  | % of Nicotine Response, ^3 H-Norepinephrine, Hippocampus ([4]; 300 μM): 17.4%
Cc1ccc(-c2cncc(C3CCCN3C)c2)cc1.O=C(O)/C=C/C(=O)O (stereo not shown) [R^5 = 4-methylphenyl, 5-(4-Methylphenyl)-3-(1-methyl-2-pyrrolidinyl)pyridine fumarate] | 0.031 | 14 |  |  | percent fractional release, ^3 H-Dopamine, Striatum ([3]; in vitro slices, 300 μM): 0.74%; percent fractional release, ^3 H-Norepinephrine, Hippocampus ([4]; in vitro slices, 300 μM): 0.52%; percent fractional release, ^3 H-Norepinephrine, Thalamus [5]: 0.31%; percent fractional release, ^3 H-Dopamine, Olfactory Tubercles [6]: 1.0%
CN1CCCC1c1cncc(C#CCCCCCCC#Cc2cncc(C3CCCN3C)c2)c1 (stereo not shown) [R^5 = See below*, 1,10-Bis-5-[3-(1-methyl-2-pyrrolidinyl)pyridine]-deca-1,9-diyne fumarate] |  |  |  |  | IC50 ([1]; IC50, Nicotine, ^3 H-nicotine 1.9 nM, rat cerebral membranes): 0.0052 µM; IC50 [2]: 7.5 µM
CN1CCCC1c1cncc(C#CC(C)(C)O)c1 (stereo not shown) | 0.038 | > 100 | 118 | 18.3 | 
CN1CCCC1c1cncc(C#CCO)c1 (stereo not shown) [R^5 = 5-(1-hydroxy-2-propynyl)] | 0.0036 | > 100 | 157 | 39 | 
CC(O)C#Cc1cncc(C2CCCN2C)c1 (stereo not shown) [R^5 = 5-(2-hydroxy-3-butynyl), 5-[4-(2-Hydroxy-3-butynyl)]-3-(1-methyl-2-pyrrolidinyl)pyridine fumarate] | 0.011 | > 100 | 98 | 30.5 | 
CCCC#Cc1cncc(C2CCCN2C)c1 (stereo not shown) [R^5 = 5-(1-pentynyl), 5-[1-(1-Pentynyl)]-3-(1-methyl-2-pyrrolidinyl)pyridine fumarate] | 0.0042 | 39 | 27.7 |  | 
C#Cc1cncc(C2CCCN2C)c1 (single isomer, unassigned) [R^5 = 5-(1-ethynyl) Di-p-toluoyl-D-tartrate] [5-ethynyl-3-(1-methyl-2-pyrrolidinyl)pyridine di-p-toluoyl-D-tartrate] |  | 4.7 |  |  | % of Nicotine Response, ^3 H-Norepinephrine, Hippocampus ([4]; 300 μM): 3.7%
CN1CCCC1c1cncc(C#CCCO)c1 (stereo not shown) [R^5 = 5-(1-hydroxy-3-butynyl)] | 0.006 | > 100 | 100 | 36.3 | 
CC#Cc1cncc(C2CCCN2C)c1 (stereo not shown) [R^5 = 5-(1-propynyl), 5-[1-(1-Propynyl)]-3-(1-methyl-2-pyrrolidinyl)pyridine fumarate] | 0.029 | > 100 |  |  | 
C#Cc1cncc(C2CCCN2)c1 (stereo not shown) [R^7 = H; R^5 = 5-(1-ethynyl), 5-Ethynyl-3-(1-H-2-pyrrolidinyl)pyridine fumarate] | 0.058 | 8.9 | 61.7 | 13.4 | 
